According to patent USRE33897E, “Synthetic polypeptides and antibodies related to Epstein-Barr virus nuclear antigen” (Scripps Clinic and Research Foundation, priority 1989, dated 1992):
Residues, ends and D or L forms follow the SMILES beside them.

Columns and labels:
anti-EBNA antibodies = assay: ELISA with polypeptide as solid phase antigen, detecting anti-polypeptide antibodies in sera; type: binding, human; settings: for Reaction of VCA- sera with polypeptide: panel of 19 VCA- sera; for Reaction of sera of clinically normal VCA+ individuals with polypeptide: two serum dilutions; for Average titer of Progressive Systemic Schlerosis (PSS) patients to polypeptide compared with normals: high and low serum dilutions; for Number of 91 anti-EBNA positive (ACIF) sera positive against polypeptide: sera at 1:20 dilution
Procedure: A solution containing a substrate for the enzyme label such as hydrogen peroxide for peroxidase and a color-forming dye precursor such as o-phenylenediamine, or p-nitrophenyl phosphate for alkaline phosphatase is thereafter admixed with the solid phase.
Anti-peptide antibody binding and inhibition studies were carried out by an enzyme-linked immunosorbent assay (ELISA) as described below.
Briefly, microtiter wells (Costar, #3590, Cambridge, Mass.) were coated with individual polypeptides as antigens by adding 100 microliters (ul) of BBS [10 millimoler (mM) sodium borate (pH 8.3), 150 mM NaCl] containing polypeptide at a concentration of 10 micrograms per milliliter (ug/ml). Contact between the wells and antigen-containing solution was maintained for a predetermined time, typically 15 minutes, and at 20 degrees C., to form an antigen-coated solid phase. The solid and liquid phases were separated and the wells were washed three times with BBS.
Non-specific binding sites were blocked by admixing 200 microliters of 1% bovine serum albumin (BSA) in each well to form another solid-liquid phase admixture, and maintaining that solid-liquid phase admixture for 30 minutes, at 20 degrees C. The phases were separated and excess, unbound BSA was removed by washinq three times with BBS.
[…] Contact between the diluted sera and the antigen-coated solid phase was maintained for a predetermined time such as 1 hour, and at 20 degrees C., for an immunoreactant to form. The solid and liquid phases were separated, and the solid phase; i.e., antigen-coated, immunoreactant-containing wells, was then washed three times with BBS.
The antibodies in human sera that immunoreacted with an adsored polypeptide were detected using an indicating means comprising alkaline phosphatase-conjugated goat anti-human Ig antibody (Tago, Burlington, CA). The antibodies in rabbit sera that immunoreacted with an adsorbed polypeptide were detected using an indicating means comprising alkaline phosphatase-conjugated goat anti-rabbit Ig antibody (Kirkegard & Perry Laboratories, Inc., Gaithersburg, Md.). In either instance, 100 microliters of the indicating antibody diluted 1:300 in BBS were added per well to form a further solid-liquid phase composition. This solidliquid phase composition was maintained for a predetermined time, one hour, for the formation of a reaction product between the human antibodies bound to the solid phase and the indicating means, and at 20 degrees C.

[1] = Circular dichroism spectroscopy of polypeptides in phosphate buffered saline; type: physicochemical; settings: 1 mg/ml
Procedure: The conformational properties of the polypeptides were investigated to elucidate any secondary structure that might be necessary for polypeptide immunoreaction with human anti-EBNA antibodies. The polypeptides were dissolved at a concentration of 1 mg/ml in phosphate-buffered saline (PBS). Spectra were taken using 1 ml samples in a Cary 61 spectropolarimeter (Cary Instruments, Applied Physics Corp., Monrovia, Calif.) interfaced and automated with a Digital Equipment Corporation 11/02 computer (Digital Equipment Corporation, Maynard, Mass.).

| Structure (SMILES) | Reaction of VCA- sera with polypeptide (anti-EBNA antibodies) | Reaction of sera of clinically normal VCA+ individuals with polypeptide (anti-EBNA antibodies) | Conformation indicated by circular dichroism spectrum [1] | Average titer of Progressive Systemic Schlerosis (PSS) patients to polypeptide compared with normals (anti-EBNA antibodies) | Number of 91 anti-EBNA positive (ACIF) sera positive against polypeptide (anti-EBNA antibodies) | OD405 × 10^3 obtained with patient antibodies to polypeptide, average ± one standard deviation (anti-EBNA antibodies; VCA- Normals (n = 27), dilution 1:20) | Antibodies binding to polypeptide before and after EBV-induced infectious mononucleosis (anti-EBNA antibodies; sera of two subjects) | OD405 × 10^3 obtained with patient antibodies to polypeptide (anti-EBNA antibodies; serum MV post-mononucleosis, dilution 1:20) | OD405 × 10^3 obtained with patient antibodies to polypeptide (anti-EBNA antibodies; serum MV pre-mononucleosis, dilution 1:20) | OD405 × 10^3 obtained with patient antibodies to polypeptide (anti-EBNA antibodies; serum SB post-mononucleosis, dilution 1:20) | OD405 × 10^3 obtained with patient antibodies to polypeptide (anti-EBNA antibodies; serum SB pre-mononucleosis, dilution 1:20) | OD405 × 10^3 obtained with patient antibodies to polypeptide (anti-EBNA antibodies; serum VCA + Normal 1, dilution 1:20) | OD405 × 10^3 obtained with patient antibodies to polypeptide (anti-EBNA antibodies; serum VCA + Normal 2, dilution 1:20) |
| --- | --- | --- | --- | --- | --- | --- | --- | --- | --- | --- | --- | --- | --- |
| CC[C@H](C)[C@H](N)C(=O)N[C@@H](CCSC)C(=O)N[C@@H](CO)C(=O)N[C@@H](CC(=O)O)C(=O)N[C@@H](CCC(=O)O)C(=O)NCC(=O)N1CCC[C@H]1C(=O)NCC(=O)N[C@H](C(=O)NCC(=O)N[C@@H](CC(N)=O)C(=O)NCC(=O)N[C@@H](CC(C)C)C(=O)NCC(=O)N[C@@H](CCC(=O)O)C(=O)O)[C@@H](C)O [Polypeptide F12, H--Ile--Met--Ser--Asp--Glu--Gly--Pro--Gly--Thr--Gly--Asn--Gly--Leu--Gly--Glu--OH] (H-IMSDEGPGTGNGLGE-OH) | None of the VCA- sera were found to react positively | all of the VCA+ indiviuals were positive | partial assumption of such conformation |  |  |  |  |  |  |  |  |  |  |
| C[C@H](NC(=O)CNC(=O)[C@@H]1CCCN1)C(=O)N1CCC[C@H]1C(=O)NCC(=O)NCC(=O)N[C@@H](CO)C(=O)NCC(=O)N[C@@H](CO)C(=O)NCC(=O)N1CCC[C@H]1C(=O)O [Polypeptide F13, H--Pro--Gly--Ala--Pro--Gly--Gly--Ser--Gly--Ser--Gly--Pro--OH] (H-PGAPGGSGSGP-OH) | None of the VCA- sera were found to react positively | all of the VCA+ indiviuals were positive | random conformation |  |  |  |  |  |  |  |  |  |  |
| C[C@H](NC(=O)CNC(=O)CNC(=O)CNC(=O)[C@H](C)NC(=O)CNC(=O)[C@H](C)NC(=O)CNC(=O)CNC(=O)[C@H](C)NC(=O)CNC(=O)CNC(=O)[C@H](C)NC(=O)CNC(=O)CN)C(=O)NCC(=O)O [Polypeptide F14, H--Gly--Gly--Ala--Gly--Gly--Ala--Gly--Gly--Ala--Gly--Ala--Gly--Gly--Gly--Ala--Gly--OH] (H-GGAGGAGGAGAGGGAG-OH) | None of the VCA- sera were found to react positively | all of the VCA+ indiviuals were positive | very similar spectra | relatively higher average titer | 91 |  |  |  |  |  |  |  |  |
| C[C@H](NC(=O)CN)C(=O)NCC(=O)NCC(=O)N[C@@H](C)C(=O)NCC(=O)N[C@@H](C)C(=O)NCC(=O)NCC(=O)NCC(=O)N[C@@H](C)C(=O)NCC(=O)NCC(=O)N[C@@H](C)C(=O)NCC(=O)NCC(=O)O [Polypeptide F15, H--Gly--Ala--Gly--Gly--Ala--Gly--Ala--Gly--Gly--Gly--Ala--Gly--Gly--Ala--Gly--Gly--OH] (H-GAGGAGAGGGAGGAGG-OH) | None of the VCA- sera were found to react positively | all of the VCA+ indiviuals were positive | very similar spectra | relatively higher average titer | 91 |  |  |  |  |  |  |  |  |
| C[C@H](NC(=O)CNC(=O)CNC(=O)[C@H](C)NC(=O)CNC(=O)[C@H](C)NC(=O)CNC(=O)CNC(=O)[C@H](C)NC(=O)CNC(=O)[C@H](C)NC(=O)CNC(=O)CNC(=O)[C@H](C)NC(=O)CNC(=O)[C@H](C)NC(=O)CNC(=O)CN)C(=O)NCC(=O)N[C@@H](C)C(=O)NCC(=O)O [Polypeptide F16, H--Gly--Gly--Ala--Gly--Ala--Gly--Gly--Ala--Gly--Ala--Gly--Gly--Ala--Gly--Ala--Gly--Gly--Ala--Gly--Ala--Gly--OH] (H-GGAGAGGAGAGGAGAGGAGAG-OH) | None of the VCA- sera were found to react positively | all of the VCA+ indiviuals were positive |  | relatively higher average titer | 91 |  |  |  |  |  |  |  |  |
| C[C@H](NC(=O)CNC(=O)CNC(=O)[C@H](C)NC(=O)CNC(=O)[C@H](C)NC(=O)CNC(=O)[C@H](C)NC(=O)CNC(=O)[C@@H](NC(=O)CNC(=O)CNC(=O)[C@H](Cc1c[nH]cn1)NC(=O)[C@@H](NC(=O)CNC(=O)[C@@H](N)CCCCN)[C@@H](C)O)[C@@H](C)O)C(=O)NCC(=O)N[C@@H](C)C(=O)NCC(=O)O [Polypeptide P27, H--Lys--Gly--Thr--His--Gly--Gly--Thr--Gly--Ala--Gly--Ala--Gly--Ala--Gly--Gly--Ala--Gly--Ala--Gly--OH] (H-KGTHGGTGAGAGAGGAGAG-OH) | None of the VCA- sera were found to react positively | all of the VCA+ indiviuals were positive | very similar spectra | relatively higher average titer | 91 | 67 ± 23 OD405 × 10^3 | absent before infection, but appeared afterward | 107 OD405 × 10^3 | 15 OD405 × 10^3 | 33 OD405 × 10^3 | 11 OD405 × 10^3 | 155 OD405 × 10^3 | 516 OD405 × 10^3 |
